Laboratory results reported in patent publication US20260132128A1, “COMPOUND FOR RECOVERING P53 MUTATION FUNCTION AND USE THEREOF” (SHENZHEN ZHONGGE BIOLOGICAL TECHNOLOGY CO., LTD., priority 2022, published 2026).
Marks after values point to notes of the source that are not given here.

Experiments:
[1] = molecular target: T1, p53 Y220C (Homo sapiens, UniProt P04637, P309S/R273H/Y220C); assay: DNA binding test (HTRF): binding of P53Y220C protein to DNA; type: biochemical; conditions: HTRF, activation of p53 Y220C (aa 94-312) binding to biotin DNA
T1 construct: a truncated mutant containing only amino acids 94-312 of p53; made in house; host or cells: E. coli
Procedure: (§1) In order to detect the ability of the aforementioned compounds to increase the binding of P53Y220C protein to DNA, the binding activity of p53 Y220C was measured by homogeneous time-resolved fluorescence (HTRF). Recombinant His-tagged p53 Y220C for HTRF measurement was expressed in bacteria E. coli. The recombinant protein was a truncated mutant containing only amino acids 94-312 of p53, and its sequence was […] […] VEGNLR […] TFRh[…] […]. The sense strand of the DNA double strand was 5′-[…]-3′, with a biotin tag at the 5′ end for activity assay, and the antisense strand was 5′-[…]-3′ 40 mL of assay buffer (20 mM Tris HCL, pH 7.5, 50 mM NaCl, 2 mM MgCl2, 0.02% Tween 20, 0.01% BSA, 1 mM DTT) was prepared. 10 mM compound was prepared and subjected to 3-fold dilution to obtain 10 dose gradient dilutions of the compound. 20 nL of the compound was added to a 384-well assay plate (PerkinElmer 6007299) using an Echo 655 Liquid Handler. P53Y220C protein was dissolved in assay buffer to reach a final concentration of 150 nM, and 5 μL thereof was added to each well, and incubated at room temperature for 5 min. DNA was dissolved in assay buffer to reach a final concentration of 150 nM, and 5 μL thereof was added to each well, and incubated at room temperature for 15 min. Anti 6HIS-XL665 (Cisbio 61HISXLB) was dissolved in assay buffer to reach a final concentration of 20 nM, and 5 μL thereof was added to each well. Streptavidin-Eu cryptate (Cisbio 610SAKLA) was dissolved in assay buffer to reach a final concentration of 0.625 nM, and 5 μL thereof was added to each well, and incubated at 27° C. for 1 hour. The plate was then read for signal values on an Envision (PerkinElmer 2105-0020) plate reader at 665 nm and 615 nm, respectively. […] Activation rate={(A-C)/(C)}*100%, A=(signal value at 665 nm/signal value at 615 nm); C=average signal of negative control (wherein, negative control referred to 0.1% DMSO).

[2] = test system: NUGC-3 cells; assay: NUGC-3 cell proliferation assay (CTG); type: cell-based, human; conditions: for GI50: Homo sapiens, NUGC-3, 144 h, 6 days, CTG; for Compound GI50 (nM)/Reference compound GI50 (nM): multiple ratio of GI50 of the compound to the reference compound
Procedure: In order to detect the inhibitory effect of the aforementioned compounds on the proliferation ability of NUGC-3 cells, 250 NUGC-3 cells (Nanjing Cobioer Biosciences Co., Ltd., CBP60492) were seeded into a 384-well plate (Corning 3765), 35 μL per well, and incubated overnight in a constant temperature incubator at 37° C. and 5% CO2. Then, 40 nL of the compound was added to the 384-well plate using an Echo 655 Liquid Handler, with a maximum final concentration of 10 μM, 1:3 serial dilutions, and a total of 10 doses. The culture was performed at 37° C. and 5% CO2 for 6 days. The plate was taken out from the incubator and equilibrated at room temperature for 10 minutes. 20 μL of CTG (Promage G7572) was added to each well of the plate according to the platemap. The plate was centrifuged at 1000 rpm for 1 min. The lysis of cells was induced by mixing on a shaker for 2 min. The plate was centrifuged at 1000 rpm for 1 min. Incubation was performed at room temperature for 10 min to stabilize luminescence signals. Luminescence values were recorded by Envision (PerkinElmer 2105-0020). GraphPad 9.0 was used to fit the inhibition rate and compound concentration into a nonlinear regression curve (dose response-variable slope) to calculate GI50, inhibition rate={1−(A−B)/(C−B)}*100%, A=signal value of compound; B=average signal of blank control; C=average signal of negative control (wherein negative control was 0.1% DMSO).

[3] = molecular target: T2, p53 Y220C (Homo sapiens, UniProt P04637, Y220C); assay: DNA binding test (HTRF): binding of P53Y220C protein to DNA; type: biochemical; conditions: multiple ratio of EC50 of the compound to the reference compound, DNA binding test
T2 construct: a truncated mutant containing only amino acids 94-312 of p53; made in house; host or cells: E. coli
Procedure: as §1

Row | SMILES | EC50 [1] [µM] | GI50 [2] [µM] | Compound GI50 (nM)/Reference compound GI50 (nM) [2] | Compound EC50 (nM)/Reference compound EC50 (nM) [3]
1 | CNC(=O)c1ccc(NCC#Cc2nc3c(N[C@@H]4CC[C@@H](N5CC6(COC6)C5)C[C@@H]4F)cccn3c2CC(F)(F)F)c(OCF)c1 [Compound 58] | < 0.1 | – | – | –
2 | COc1cc(S(C)(=N)=O)ccc1NCC#Cc1nc2c(NC3CCN(C)CC3)cccn2c1CC(F)(F)F (stereo not shown) [Compound 15] | 0.1 to 0.5 | < 1 | C (C: GI50 of the compound ≥ 3 * GI50 of the reference compound) | C (C: EC50 of the compound≥3*EC50 of the reference compound)
3 | CONC(=O)c1ccc(NCC#Cc2nc3c(NC4CC[C@@H](N5CC6(COC6)C5)C[C@@H]4F)cccn3c2CC(F)(F)F)c(OC)c1 (stereo partly shown) [Compound 53] | – | < 1 | C (C: GI50 of the compound ≥ 3 * GI50 of the reference compound) | A (A: EC50 of the compound≤EC50 of the reference compound)
4 | CNC(=O)c1ccc(NCC#Cc2cc3c(NC4CC[C@@H](N5CC6(COC6)C5)C[C@@H]4F)ccnn3c2CC(F)(F)F)c(OC)c1 (stereo partly shown) [Compound 68] | – | – | C (C: GI50 of the compound ≥ 3 * GI50 of the reference compound) | C (C: EC50 of the compound≥3*EC50 of the reference compound)
5 | CNC(=O)c1ccc(NCC#Cc2nc3c(N[C@@H]4CC[C@@H](N5CCCC5)C[C@@H]4F)cccn3c2CC(F)(F)F)c(OC)c1 [Compound 41] | < 0.1 | – | – | –
6 | CNC(=O)c1ccc(NCC#Cc2cc3c(NC4CC[C@@H](N5CC6(COC6)C5)C[C@@H]4F)cccn3c2CC(F)(F)F)c(OC)c1 (stereo partly shown) [Compound 65] | – | < 1 | A (A: GI50 of the compound ≤ GI50 of the reference compound) | B (B: EC50 of the reference compound<EC50 of the compound≤3.0*EC50 of the reference compound)
7 | CNC(=O)c1ccc(NCC#Cc2nc3c(N[C@@H]4CC[C@@H](N5CC6(CCC6)C5)C[C@@H]4F)cccn3c2CC(F)(F)F)c(OC)c1 [Compound 42] | < 0.1 | – | – | –
8 | CNC(=O)c1ccc(NCC#Cc2nc3c(NC4CC[C@@H](N5CC6(COC6)C5)C[C@@H]4F)cccn3c2CC(F)(F)F)c(OC2COC2)c1 (stereo partly shown) [Compound 60] | – | – | C (C: GI50 of the compound ≥ 3 * GI50 of the reference compound) | B (B: EC50 of the reference compound<EC50 of the compound≤3.0*EC50 of the reference compound)
9 | CNC(=O)c1ccc(NCC#Cc2nc3c(N[C@@H]4CC[C@@H](N5CC6(COC6)C5)C[C@@H]4F)cccn3c2CC(F)(F)F)c(OC2CC2)c1 [Compound 57] | < 0.1 | – | – | –
10 | CNC(=O)c1ccc(NCC#Cc2nc3c(NC4CC[C@@H](N5CC6(COC6)C5)C[C@@H]4F)cccn3c2CC(F)(F)F)c(OCC(F)(F)F)c1 (stereo partly shown) [Compound 59] | – | – | C (C: GI50 of the compound ≥ 3 * GI50 of the reference compound) | B (B: EC50 of the reference compound<EC50 of the compound≤3.0*EC50 of the reference compound)
11 | COc1cc(C(=O)NC2CC(F)C2)ccc1NCC#Cc1nc2c(NC3CC[C@@H](N4CC5(COC5)C4)C[C@@H]3F)cccn2c1CC(F)(F)F (stereo partly shown) [Compound 56] | – | – | C (C: GI50 of the compound ≥ 3 * GI50 of the reference compound) | C (C: EC50 of the compound≥3*EC50 of the reference compound)
